Where no end group is shown, it is not given here.
What was measured:
E. coli ATCC 25922 = format: cell-based; conditions: for IC50 (μg/ml) against E. coli: individual polypeptides
Description: (§1) To initiate the exponential phase of bacterial growth prior to the assay, a sample of bacteria grown overnight (about 18 hours) at 37° C. in Mueller Hinton broth (MH-Becton Dickinson Microbiology Systems) was reinoculated and incubated at 37° C. A final concentration of […] was used in all assays, vortexed and diluted 10-fold in Yeast Media (YM) broth (Difco Laboratories, Detroit, Mich.), for an approximate final concentration of 10^5 to 5×10^5 CFU/ml. The assays were carried out in 96-well tissue culture plates (Costar, Pleasanton, Calif.), as described in Blondelle et al., Biochem., 31:12688-12694 (1992). In brief, a bacterial suspension in 2× broth was added to the polypeptides mixture sets at concentrations derived from serial two-fold dilutions varying from 1000 μg/ml to 4 μg/ml. The plates were then incubated 21 hours at 37° C. The relative percent growth of the bacteria was determined by the optical density at 620 nm (OD620) using a Titertek Multiskan Plus apparatus (Flow Laboratories, McLean, Va.). The concentration necessary to inhibit 50 percent bacterial growth (IC50) was then calculated using the software program Graphpad (ISI, San Diego, Calif.).
Studies similar to those with S. aureus were carried out using E. coli ATCC 25922. Here, results were not as dramatic, but enhancements in activity of about 2-fold were observed using the set libraries of Example 1.

[1] = system: human erythrocytes (red blood cells; RBCs); assay: Hemolytic activity; format: cell-based; conditions: for HC50 (μg/ml) against Erythrocytes: red cells of human
Description: The hemolytic activities of the polypeptide mixture sets were determined by using human erythrocytes (red blood cells; RBCs). The cells were washed three times with phosphate-buffered saline (PBS/35 mM phosphate buffer--0.15M NaCl, pH 7.0) and resuspended in PBS. The hemolytic activity of the polypeptide sets were determined as described in Blondelle et al., Biochem. Biophys. Acta, 1202:331-336 (1993) using 96 well tissue culture plates. In brief, 100 μl of 0.5 percent RBC solution were added to an equal volume of peptides in PBS. The plates were incubated for one hour at 37° C. and the optical density (OD) of the supernatant was measured at 414 nm. The concentration in peptide necessary to lyse 50 percent RBCs (HD50) was then determined for each peptide using a sigmoidal curve fitting method (Graphpad).

[2] = system: Staphylococcus aureus (ATCC 29213); format: cell-based; conditions: for IC50 (μg/ml) against S. aureus: individual polypeptides
Description: The polypeptide libraries of Example 1 were assayed for activity against Staphylococcus aureus [(ATCC 29213); ATCC, 12301 Parklawn Drive, Rockville, Md.]
as §1

[3] = Decarboxylase-like activity: catalysed decarboxylation of oxalacetate; format: biochemical; conditions: for kcat × 10^3 (S^-1): values are kcat × 10^3
Description: Each peptide mixture was assayed at 0.2 mM in the presence of 11.4 mM of oxalacetic acid (C4 H4 O5) at pH 7.0 (dilution done in PBS--35 mM phosphate buffer--0.15M NaCl) and 22° C. The kinetics of the decarboxylation reaction were monitored by UV spectroscopy at 280 nm for 45 minutes and the initial rate "v" was calculated directly from the kinetic software included with the spectrophotometer (Hewlett Packard Diode Array Spectrophotometer 8452A).
Based upon the scanning assay studies, a series of 144 individual polypeptides was prepared and assayed as above except that the oxalacetic acid concentration was 11.5 mM. These polypeptides had the sequence of SEQ ID NO:2 with residues at positions Xaa^6 being Glu, Lys or Trp; residues at Xaa^9 being Ala, Asn or Trp; residues at Xaa^13 being Glu, Gln, Val or Trp; and residues at position Xaa^16 being Asp, Met, Gln or Arg (3×3×4×4=144).

## YKLLKKLLKKLKKLLKKL-NH2 [SEQ ID NO: 9, YKLLKKLLKKLKKLLKKL-NH2, reference compound]
E. coli ATCC 25922; ATCC 25922, 18 h
  IC50: 9 µg/mL
E. coli ATCC 25922
  IC50 (μg/ml) against E. coli: 9 µg/mL
[1]
  HD50 value: 27 µg/mL
[2]; ATCC 29213
  IC50 value: 16 µg/mL
[3]; Table 3
  Kcat /Km (S^-1 M^-1): 0.70 S^-1 M^-1
  kcat × 10^3 (S^-1): 9.5 S^-1
[3]; Table 3, 0.2 mM peptide, oxalacetic acid 2.8 to 22.8 mM, pH 7.0, 22° C.
  Km: 13.5 mM

## YKLLKLLLPKLKGLLFKL-NH2 [SEQ ID NO: 3, YKLLKLLLPKLKGLLFKL]
E. coli ATCC 25922
  IC50 (μg/ml) against E. coli: 2.40 µg/mL
[1]
  HC50 (μg/ml) against Erythrocytes: 24.41 µg/mL
[2]
  IC50 (μg/ml) against S. aureus: 1.71 µg/mL

## YKLLKLLLPKLKPLLFKL-NH2 [SEQ ID NO: 6, YKLLKLLLPKLKPLLFKL]
E. coli ATCC 25922
  IC50 (μg/ml) against E. coli: 1.98 µg/mL
[1]
  HC50 (μg/ml) against Erythrocytes: 54.74 µg/mL
[2]
  IC50 (μg/ml) against S. aureus: 2.11 µg/mL

## YKLLKLLLPKLKPLLIKL-NH2 [SEQ ID NO: 7, YKLLKLLLPKLKPLLIKL]
E. coli ATCC 25922
  IC50 (μg/ml) against E. coli: 1.87 µg/mL
[1]
  HC50 (μg/ml) against Erythrocytes: 68.90 µg/mL
[2]
  IC50 (μg/ml) against S. aureus: 2.81 µg/mL

## YKLLKLLLPKLKPLLPKL-NH2 [SEQ ID NO: 8, YKLLKLLLPKLKPLLPKL]
E. coli ATCC 25922
  IC50 (μg/ml) against E. coli: 3.14 µg/mL
[1]
  HC50 (μg/ml) against Erythrocytes: > 125 µg/mL
[2]
  IC50 (μg/ml) against S. aureus: 22.82 µg/mL
[3]; Table 4
  Kcat /Km (S^-1 M^-1): 0.53 S^-1 M^-1
  Km: 8 mM
  kcat × 10^3 (S^-1): 4.22 S^-1

## YKLLKLLLPKLKGLLIKL-NH2 [SEQ ID NO: 4, YKLLKLLLPKLKGLLIKL]
E. coli ATCC 25922
  IC50 (μg/ml) against E. coli: 3.61 µg/mL
[1]
  HC50 (μg/ml) against Erythrocytes: 28.41 µg/mL
[2]
  IC50 (μg/ml) against S. aureus: 2.52 µg/mL

## YKLLKLLLPKLKGLLPKL-NH2 [SEQ ID NO: 5, YKLLKLLLPKLKGLLPKL]
E. coli ATCC 25922
  IC50 (μg/ml) against E. coli: 2.65 µg/mL
[1]
  HC50 (μg/ml) against Erythrocytes: > 125 µg/mL
[2]
  IC50 (μg/ml) against S. aureus: 5.14 µg/mL

## YKLLKELLAKLKWLLRKL-NH2 [YKLLKELLAKLKWLLRKL-NH2]
[3]; Table 4
  Kcat /Km (S^-1 M^-1): 2.66 S^-1 M^-1
  Km: 5.66 mM
  kcat × 10^3 (S^-1): 15.08 S^-1

From US5582997A, “Lysine/leucine polypeptides, mixture sets and libraries thereof” (priority 1994, dated 1996)
